Eight compounds from ChEMBL document CHEMBL5506019 (J Med Chem, 2024) can be followed below.

Assay type in all cases: functional, cell-based
Test [1] concerns the target T1, 5-hydroxytryptamine receptor 2C (Homo sapiens) (UniProt P28335).
T1 sequence (whole entry): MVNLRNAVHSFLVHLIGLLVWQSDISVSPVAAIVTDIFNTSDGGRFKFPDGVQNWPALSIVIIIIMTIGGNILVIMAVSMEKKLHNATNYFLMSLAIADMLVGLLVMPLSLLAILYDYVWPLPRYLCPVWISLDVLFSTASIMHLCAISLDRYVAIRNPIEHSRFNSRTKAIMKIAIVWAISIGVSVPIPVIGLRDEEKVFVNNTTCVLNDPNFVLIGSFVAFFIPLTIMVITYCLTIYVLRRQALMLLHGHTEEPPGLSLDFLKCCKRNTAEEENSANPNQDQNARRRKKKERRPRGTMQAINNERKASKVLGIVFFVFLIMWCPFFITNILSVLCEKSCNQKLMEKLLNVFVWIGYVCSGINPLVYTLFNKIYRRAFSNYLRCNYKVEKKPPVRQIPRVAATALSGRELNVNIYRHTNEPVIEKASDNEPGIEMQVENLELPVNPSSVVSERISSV
The test is described as follows: Agonist activity at human 5-HT2CR expressed in HEK293 cells upto 50 uM incubated upto 90 sec by Fluo-4 AM dye based Ca2+ imaging assay.

The target of test [2] is T2, 5-hydroxytryptamine receptor 2A (Homo sapiens, UniProt P28223). Briefly: Agonist activity at human 5-HT2AR expressed in HEK293 cells upto 50 uM incubated upto 90 sec by Fluo-4 AM dye based Ca2+ imaging assay.
For test [3], the target named is T2, 5-hydroxytryptamine receptor 2A. Briefly: Agonist activity at human 5-HT2AR expressed in HEK293 cells incubated upto 90 sec by Fluo-4 AM dye based Ca2+ imaging assay.
Test [4] has the same target. Briefly: Agonist activity at human 5-HT2AR expressed in HEK293 cells assessed as maximal response incubated upto 90 sec by Fluo-4 AM dye based Ca2+ imaging assay relative to 5-HT. As to conditions: filed as agonist.

Calls of active or inactive are those of the source. The calls are words filed in the database; no cut-off is given here.

T2 sequence (P28223 whole entry): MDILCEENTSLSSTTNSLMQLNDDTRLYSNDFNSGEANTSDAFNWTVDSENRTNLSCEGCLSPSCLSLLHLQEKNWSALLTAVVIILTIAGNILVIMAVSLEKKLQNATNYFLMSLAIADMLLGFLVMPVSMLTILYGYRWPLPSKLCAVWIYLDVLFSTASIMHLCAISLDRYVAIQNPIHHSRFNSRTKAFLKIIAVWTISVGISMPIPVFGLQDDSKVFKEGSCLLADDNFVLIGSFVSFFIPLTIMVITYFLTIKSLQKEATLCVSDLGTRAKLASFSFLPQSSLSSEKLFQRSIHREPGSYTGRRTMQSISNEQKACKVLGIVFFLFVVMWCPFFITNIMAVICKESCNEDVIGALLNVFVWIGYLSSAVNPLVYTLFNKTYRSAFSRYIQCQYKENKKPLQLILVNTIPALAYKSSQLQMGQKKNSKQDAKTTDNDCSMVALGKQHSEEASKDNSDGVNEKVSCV

Consider `CCN1CCC[C@@H](c2cc(OC)c(C(F)(F)F)cc2OC)C1`, for which the outcome in test [1] was inactive.
Turning to `COc1ccc(OC)c(C2CCCNC2)c1` (racemic), the result in test [2] and in test [1] was inactive.
`CCOc1cc(C(F)(F)F)c(OCC)cc1C1CCCNC1` (stereo in doubt): the result in test [1] was inactive.
As for `CCN1CCC[C@H](c2cc(OC)c(C(F)(F)F)cc2OC)C1`, the result in test [2] and in test [1] was inactive.
For the compound `CCOc1cc(C(F)(F)F)c(OCC)cc1C1CCCNC1` (stereo in doubt; 26(eu)), in test [1], the result was inactive.
Regarding `FC(F)(F)c1ccc(C2CCCNC2)cc1` (racemic), the outcome in test [2] and in test [1] was inactive.
As to `COc1cc(CCN)c(OC)cc1Br`, it took 1.6 nM to reach a half-maximal effect in test [3] (EC50). Further, the Rmax in test [4] was 68%.
As for `COc1cc(C2CCCNC2)ccc1C(F)(F)F` (configuration not stated), the result in test [1] was inactive.
